The values below come from patent publication US9421204B2, “Oligomer modified diaromatic substituted compounds” (priority 2010, dated 2016).

“And” between values parts separate entries of the source, which are not always exact repeats. Equal values may be shown once. Read-outs that look alike come from different tables or passages of the source. Bounds are passed on as bounds.

Series [1] concerns A17K103N/Y181C. Put plainly: Anti-HIV cytoprotection assay, drug resistant A17. The note with it: HIV-1 strain A17K103N/Y181C, CEM-SS cells. Type of series: cell-based. The method, then: (§1) Cells were prepared as described above. Virus Preparation—The wild type NL4-3 and drug resistant A17 viruses were obtained from the NIH AIDS Research and Reference Reagent Program and stock virus pools were produced in CEM-SS cells. Amino acid substitutes of L100I, Y181C and P23L were introduced by site-directed mutagenesis into pN L4-3 and stock virus pools were produced in CEM-SS cells. A pretitered aliquot of virus was removed from the freezer (−80° C.) and allowed to thaw slowly to room temperature in a biological safety cabinet.
(§2) Plate Format—Each plate contains cell control wells (cells only), virus control wells (cells plus virus), drug toxicity wells (cells plus drug only), drug colorimetric control wells (drug only) as well as experimental wells (drug plus cells plus virus). Samples were tested in triplicate with eleven half-log dilutions per compound. Efficacy and Toxicity XTT—Following incubation at 37° C. in a 5% CO2 incubator, the test plates were stained with the tetrazolium dye XTT (2,3-bis(2-methoxy-4-nitro-5-sulfophenyl)-5-[(phenylamino)carbonyl]-2H-tetrazolium hydroxide). XTT-tetrazolium was metabolized by the mitochondrial enzymes of metabolically active cells to a soluble formazan product, allowing rapid quantitative analysis of the inhibition of HIV induced cell killing by anti-HIV test substances. XTT solution was prepared daily as a stock of 1 mg/mL in RPMI1640. Phenazine methosulfate (PMS) solution was prepared at 0.15 mg/mL in PBS and stored in the dark at −20° C. XTTIPMS stock was prepared immediately before use by adding 40 μL of PMS per ml of XTT solution. Fifty microliters of XTT/PMS was added to each well of the plate and the plate was re-incubated for 4 hours at 37° C. Plates were sealed with adhesive plate sealers and shaken gently or inverted several times to mix the soluble formazan product and the plate was read spectrophotometrically at 450/650 nm with a Molecular Devices Vmax plate reader.
(§3) Data Analysis—Raw data was collected from the Softmax Pro 4.6 software and imported into a Excel XLFit4 spreadsheet for analysis by four parameter curve fit calculations. Both antiviral activity and toxicity are calculated.

The test system of series [2] is NL4-3P236L. Put plainly: Anti-HIV cytoprotection assay, drug resistant NL4-3 P236L. Conditions: HIV-1 strain NL4-3P236L; for EC50: CEM-SS cells. Type of series: cell-based. The procedure:
as §1, with “cabinet. Virus was re-suspended and diluted into tissue culture medium such that the amount of virus added to each well in a volume of 50 μL was the amount determined to yield 85 to 95% cell killing at 6 days post-infection.” for “cabinet.”
as §2, §3

Series [3] relates to CEM-SS cells. Put plainly: Toxicity XTT in CEM-SS cells (drug resistant strain assay). In kind it is cell-based. The note with it: read-out: TC50 (the source's name). The procedure:
as §1, with “cabinet. Virus was re-suspended and diluted into tissue culture medium such that the amount of virus added to each well in a volume of 50 μL was the amount determined to yield 85 to 95% cell killing at 6 days post-infection.” for “cabinet.”
as §2, §3
A general note: Formazan colour is commonly taken as a measure of viable cells.

Assay in series [4]: as above
Type of series: cell-based. Conditions: human, CEM-SS cells, read-out: TC50 (the source's name). The procedure:
as §1, with “cabinet. Virus was re-suspended and diluted into tissue culture medium such that the amount of virus added to each well in a volume of 50 μL was the amount determined to yield 85 to 95% cell killing at 6 days post-infection.” for “cabinet.”
as §2, §3

Series [5] relates to NL4-3Y181C. As to the kind of experiment: Anti-HIV cytoprotection assay, drug resistant NL4-3 Y181C. Conditions: HIV-1 strain NL4-3Y181C; for EC50: CEM-SS cells. In kind it is cell-based. The method, then:
as §1, with “cabinet. Virus was re-suspended and diluted into tissue culture medium such that the amount of virus added to each well in a volume of 50 μL was the amount determined to yield 85 to 95% cell killing at 6 days post-infection.” for “cabinet.”
as §2, §3

Series [6] concerns NL4-3. Put plainly: Anti-HIV cytoprotection assay, wild type NL4-3. In kind it is cell-based, HIV-1. Conditions: for EC50: HIV-1 strain NL4-3, CEM-SS cells, read-out: EC50. The method, then:
as §1, §2, §3

Series [7] has as its system NL4-3L100I. Put plainly: Anti-HIV cytoprotection assay, drug resistant NL4-3 L100I. Type of series: cell-based. The note with it: HIV-1 strain NL4-3L100I, CEM-SS cells. The procedure: as §1, with “cabinet. Virus was re-suspended and diluted into tissue culture medium such that the amount of virus added to each well in a volume of 50 μL was the amount determined to yield 85 to 95% cell killing at 6 days post-infection.” for “cabinet.”
as §2, §3

Series [8] is described as follows: Toxicity XTT in CEM-SS cells (cytoprotection assay). The note with it: human, CEM-SS cells, XTT; read-out: CEM-SS TC50. In kind it is cell-based. The method, then:
Cell Preparation—CEM-SS cells were passaged in T-75 flasks prior to use in the antiviral assay. On the day preceding the assay, the cells were split 1:2 to assure they were in an exponential growth phase at the time of infection. Total cell and viability quantification was performed using a hemocytometer and Trypan Blue dye exclusion. Cell viability was greater than 95% for the cells to be utilized in the assay. The cells were resuspended at 5×10^4 cells per ml in tissue culture medium and added to the drug containing microtiter plates in a volume of 50 μL.
(§4) Plate Format—Each plate contains cell control wells (cells only), virus control wells (cells plus virus), drug toxicity wells (cells plus drug only), drug colorimetric control wells (drug only) as well as experimental wells (drug plus cells plus virus). Samples were tested in triplicate with eleven half-log dilutions per compound.
as §2, with “Efficacy and” for “Plate Format—Each plate contains cell control wells (cells only), virus control wells (cells plus virus), drug toxicity wells (cells plus drug only), drug colorimetric control wells (drug only) as well as experimental wells (drug plus cells plus virus). Samples were tested in triplicate with eleven half-log dilutions per compound. Efficacy and”, “hydroxide). XTT-tetrazolium is metabolized by” for “hydroxide). XTT-tetrazolium was metabolized by”, “−20° C. XTT/PMS stock was” for “−20° C. XTTIPMS stock was”, “the soluble fosmazan product and” for “the soluble formazan product and”
as §3

The test system of series [9] is HIV-1RF. As to the kind of experiment: Anti-HIV-1 cytoprotection assay in CEM-SS cells. Type of series: cell-based. The procedure:
Cell Preparation—CEM-SS cells were passaged in T-75 flasks prior to use in the antiviral assay. On the day preceding the assay, the cells were split 1:2 to assure they were in an exponential growth phase at the time of infection. Total cell and viability quantification was performed using a hemocytometer and Trypan Blue dye exclusion. […] The cells were resuspended at 5×10^4 cells per ml in tissue culture medium and added to the drug containing microtiter plates in a volume of 50 μL.
Virus Preparation—The virus used for the assay was the lymphocyte-tropic virus strain HIV-IRF. The virus was obtained from the NIH AIDS Research and Reference Reagent Program and stock virus pools were produced in CEM-SS cells. A pretitred aliquot of virus was removed from the freezer (−80° C.) and allowed to thaw slowly to room temperature in a biological safety cabinet.
as §4
as §2, with “Efficacy and” for “Plate Format—Each plate contains cell control wells (cells only), virus control wells (cells plus virus), drug toxicity wells (cells plus drug only), drug colorimetric control wells (drug only) as well as experimental wells (drug plus cells plus virus). Samples were tested in triplicate with eleven half-log dilutions per compound. Efficacy and”, “hydroxide). XTT-tetrazolium is metabolized by” for “hydroxide). XTT-tetrazolium was metabolized by”, “−20° C. XTT/PMS stock was” for “−20° C. XTTIPMS stock was”, “the soluble fosmazan product and” for “the soluble formazan product and”
Anti-HIV-1 Cytopathic Effects Inhibition Assay Evaluations: Eight compounds were evaluated against the RF strain of HIV-1 in CEM-SS cells using a 12 concentration dose response curve.
as §3

Where [10] appears, read: Human immunodeficiency virus 1, CEM-SS.
[11] abbreviates: run with HIV-1 strain A17K103N/Y181C.
The mark [12] stands for this setting: run with HIV-1 strain NL4-3L100I.
The mark [13] stands for this setting: run with HIV-1 strain NL4-3P236L.
[14] abbreviates: run with HIV-1 strain NL4-3Y181C.

As to `CC(C)Nc1cccnc1N1CCN(C(=O)c2cc3cc(NS(C)(=O)=O)ccc3[nH]2)CC1` [Delavirdine, N-[2-({4-[3-(propan-2-ylamino)pyridin-2-yl]piperazin-1-yl}carbonyl)-1H-indol-5-yl]methanesulfonamide, reference compound], the EC50 in series [1] is above 1000 nM; in series [1] (setting [10]), above 500 nM; in [2], 500 nM; in [2] (setting [10]), above 500 nM; in series [5], 580 nM; in [5] (setting [10]), above 500 nM. For the same compound, the EC50 was 10 nM in series [6] and 5 nM in series [6] (Human immunodeficiency virus 1, NL43, CEM-SS). Further, the TI is given as above 2.0 in [2], above 1.7 in series [5] and above 100.0 in series [6] (HIV-1 strain NL4-3). Besides, the CC50 was above 1000 nM in series [3] (setting [11]); above 1000 nM in series [3] (run with HIV-1 strain NL4-3); above 1000 nM in series [3] (setting [12]); above 1000 nM in series [3] (setting [13]); above 1000 nM in series [3] (setting [14]); above 500 nM in series [4] (setting [11]). Moreover, the CC50 in [4] (run with HIV-1 strain NL4-3), in [4] (setting [12]), in series [4] (setting [13]) and in series [4] (setting [14]) was above 500 nM throughout.

`Cc1ccnc2c1NC(=O)c1cccnc1N2C1CC1` [Nevirapine, reference compound]: the EC50 is above 10000 nM in series [1] (setting [10]); 280 nM in series [2]; 300 nM in series [2] (setting [10]); above 10000 nM in series [7] (setting [10]); 8590 nM in series [5]; above 10000 nM in [5] (setting [10]). Besides, the TI was >33.3 and >35.7 in [2]; above 1.2 in series [5]. Further, the CC50 in series [4] (setting [11]), in series [4] (run with HIV-1 strain NL4-3), in series [4] (setting [12]), in series [4] (setting [13]) and in [4] (setting [14]) was above 10000 nM throughout.

As for `Cc1cn([C@H]2C[C@H](N=[N+]=[N-])[C@@H](CO)O2)c(=O)[nH]c1=O` [AZT, reference compound], the EC50 in series [1] (setting [10]) was found to be 3 nM; in series [7] it was 6 nM; in [7] (setting [10]), 3 nM; in series [5] it was 1 nM; in [5] (setting [10]) it was 2 nM; in [9] (CEM-SS cells, XTT, read-out: CEM-SS/HIV-1RF EC50), 10 nM. The EC50 in [9] (Human immunodeficiency virus 1, CEM-SS, CEM-SS cells, XTT, read-out: CEM-SS/HIV-1RF EC50) is 6 nM; in series [9] (Human immunodeficiency virus 1, CEM-SS, RF strain of HIV-1 in CEM-SS cells, control compound, read-out: EC50) it was 6 nM. Also, the CC50 in series [8] was above 1000 nM; in [4] (setting [11]), above 500 nM. Besides, the TI in [2] was >71.4 and >50.0.
